Like-named read-outs stand apart in the source and are kept apart here.
Test: Tissue distribution of SGC003F in rats with or without tariquidar
Type: in vivo
Conditions: rat; for Kp / AUC(0-t): male
Procedure: A total of 45 male SD rats were randomly divided into 15 groups, with 3 rats in each group; each set of 5 groups constituted a larger group. The first large group served as the control group: SGC003F (p.o., 1 mg/kg) + blank solvent; the second large group was designated as experimental Group I: SGC003F (p.o., 1 mg/kg) + tariquidar (i.v., 7.5 mg/kg); the third group was labeled as Group II: SGC003F (p.o., 1 mg/kg) + tariquidar (p.o., 15 mg/kg). The rats in each group were euthanized at 0.5 h, 1 h, 2 h, 4 h, and 24 h after administration. Blood samples were collected by cardiac puncture and placed in heparin tubes. The plasma was harvested by centrifugation at 2500× g for 10 min at 4 °C. Major organs (brain, heart, liver, kidney, and small intestine) were collected and homogenized with saline at a ratio of 1:4 (w/v). All samples were stored at −40 °C for further analysis.
The tissue plasma partition coefficient at individual time point (KP1) was calculated by the ratio of the tissue concentration to the plasma concentration at each time point, as described in Equation (3) KP1 = Ctissue/Cplasma(3)
The overall tissue plasma partition coefficient (KP2) was calculated by the ratio of the area under the tissue drug-time curve to the area under the plasma drug–time curve, as described in Equation (4) KP2 = AUC(0-t, tissue)/AUC(0-t, plasma)(4)

[1] = SGC003F p.o. 1 mg/kg, tariquidar i.v. 7.5 mg/kg
[2] = SGC003F p.o. 1 mg/kg, tariquidar p.o. 15 mg/kg

- Kp (SD, brain, oral, SGC003F p.o. 1 mg/kg, with tariquidar i.v. 7.5 mg/kg, read-out: KP2, Brain): 0.004
- Kp (SD, brain, oral, SGC003F p.o. 1 mg/kg, with tariquidar p.o. 15 mg/kg, read-out: KP2, Brain): 0.004
- AUC(0-t) (SD, brain, po, 1 mg/kg, SGC003F p.o. 1 mg/kg, single, read-out: AUC(0–24h), Brain): 13.1 ± 2.66 ng·h/mL
- AUC(0-t) (SD, brain, po, 1 mg/kg, SGC003F p.o. 1 mg/kg, with tariquidar i.v. 7.5 mg/kg, read-out: AUC(0–24h), Brain): 31.2 ± 10.9 ng·h/mL
- AUC(0-t) (SD, brain, po, 1 mg/kg, SGC003F p.o. 1 mg/kg, with tariquidar p.o. 15 mg/kg, read-out: AUC(0–24h), Brain): 41.5 ± 14.8 ng·h/mL
- Kp (SD, heart, oral, SGC003F p.o. 1 mg/kg, with tariquidar i.v. 7.5 mg/kg, read-out: KP2, Heart): 0.4 ± 0.02
- Kp (SD, heart, oral, SGC003F p.o. 1 mg/kg, with tariquidar p.o. 15 mg/kg, read-out: KP2, Heart): 0.45 ± 0.09
- AUC(0-t) (SD, heart, po, 1 mg/kg, SGC003F p.o. 1 mg/kg, single, read-out: AUC(0–24h), Heart): 2370 ± 346 ng·h/mL
- Kp (SD, heart, po, 1 mg/kg, SGC003F p.o. 1 mg/kg, single, read-out: KP2 (tissue/plasma AUC), Heart): 0.45 ± 0.04
- AUC(0-t) (SD, heart, po, 1 mg/kg, SGC003F p.o. 1 mg/kg, with tariquidar i.v. 7.5 mg/kg, read-out: AUC(0–24h), Heart): 3060 ± 619 ng·h/mL
- AUC(0-t) (SD, heart, po, 1 mg/kg, SGC003F p.o. 1 mg/kg, with tariquidar p.o. 15 mg/kg, read-out: AUC(0–24h), Heart): 4750 ± 1820 ng·h/mL
- AUC(0-t) (SD, kidney, po, 1 mg/kg, SGC003F p.o. 1 mg/kg, single, read-out: AUC(0–24h), Kidney): 5990 ± 2170 ng·h/mL
- AUC(0-t) (SD, kidney, po, 1 mg/kg, SGC003F p.o. 1 mg/kg, with tariquidar i.v. 7.5 mg/kg, read-out: AUC(0–24h), Kidney): 7870 ± 1570 ng·h/mL
- AUC(0-t) (SD, kidney, po, 1 mg/kg, SGC003F p.o. 1 mg/kg, with tariquidar p.o. 15 mg/kg, read-out: AUC(0–24h), Kidney): 11900 ng·h/mL
- AUC(0-t) (SD, liver, po, 1 mg/kg, SGC003F p.o. 1 mg/kg, single, read-out: AUC(0–24h), Liver): 4870 ± 1050 ng·h/mL
- AUC(0-t) (SD, liver, po, 1 mg/kg, SGC003F p.o. 1 mg/kg, with tariquidar i.v. 7.5 mg/kg, read-out: AUC(0–24h), Liver): 6360 ± 283 ng·h/mL
- AUC(0-t) (SD, liver, po, 1 mg/kg, SGC003F p.o. 1 mg/kg, with tariquidar p.o. 15 mg/kg, read-out: AUC(0–24h), Liver): 9600 ± 1820 ng·h/mL
- AUC(0-t) (SD, plasma, po, 1 mg/kg, SGC003F p.o. 1 mg/kg, single, read-out: AUC(0–24h), Plasma): 5310 ± 798 ng·h/mL
- AUC(0-t) (SD, plasma, po, 1 mg/kg, SGC003F p.o. 1 mg/kg, with tariquidar i.v. 7.5 mg/kg, read-out: AUC(0–24h), Plasma): 7540 ± 1280 ng·h/mL
- AUC(0-t) (SD, plasma, po, 1 mg/kg, SGC003F p.o. 1 mg/kg, with tariquidar p.o. 15 mg/kg, read-out: AUC(0–24h), Plasma): 10200 ng·h/mL
- AUC(0-t) (SD, small intestine, po, 1 mg/kg, SGC003F p.o. 1 mg/kg, single, read-out: AUC(0–24h), Intestine): 2530 ± 988 ng·h/mL
- AUC(0-t) (SD, small intestine, po, 1 mg/kg, SGC003F p.o. 1 mg/kg, with tariquidar i.v. 7.5 mg/kg, read-out: AUC(0–24h), Intestine): 5630 ± 1360 ng·h/mL
- AUC(0-t) (SD, small intestine, po, 1 mg/kg, SGC003F p.o. 1 mg/kg, with tariquidar p.o. 15 mg/kg, read-out: AUC(0–24h), Intestine): 10400 ng·h/mL
- Kp (Sprague-Dawley, brain, po, 1 mg/kg, SGC003F p.o. 1 mg/kg, single, read-out: KP2 (tissue/plasma AUC), Brain): 0.002
- Kp (Sprague-Dawley, kidney, oral, SGC003F p.o. 1 mg/kg, with tariquidar i.v. 7.5 mg/kg, read-out: KP2, Kidney): 1.05 ± 0.14
- Kp (Sprague-Dawley, kidney, oral, SGC003F p.o. 1 mg/kg, with tariquidar p.o. 15 mg/kg, read-out: KP2, Kidney): 1.16 ± 0.26
- Kp (Sprague-Dawley, kidney, po, 1 mg/kg, SGC003F p.o. 1 mg/kg, single, read-out: KP2 (tissue/plasma AUC), Kidney): 1.11 ± 0.24
- Kp (Sprague-Dawley, liver, oral, SGC003F p.o. 1 mg/kg, with tariquidar i.v. 7.5 mg/kg, read-out: KP2, Liver): 0.86 ± 0.11
- Kp (Sprague-Dawley, liver, oral, SGC003F p.o. 1 mg/kg, with tariquidar p.o. 15 mg/kg, read-out: KP2, Liver): 0.95 ± 0.07
- Kp (Sprague-Dawley, liver, po, 1 mg/kg, SGC003F p.o. 1 mg/kg, single, read-out: KP2 (tissue/plasma AUC), Liver): 0.91 ± 0.09
- Kp (Sprague-Dawley, small intestine, oral, SGC003F p.o. 1 mg/kg, with tariquidar i.v. 7.5 mg/kg, read-out: KP2, Intestine): 0.74 ± 0.06
- Kp (Sprague-Dawley, small intestine, oral, SGC003F p.o. 1 mg/kg, with tariquidar p.o. 15 mg/kg, read-out: KP2, Intestine): 1.01 ± 0.19
- Kp (Sprague-Dawley, small intestine, po, 1 mg/kg, SGC003F p.o. 1 mg/kg, single, read-out: KP2 (tissue/plasma AUC), Intestine): 0.47 ± 0.11
- Brain-to-plasma concentration ratio relative to control group (4 h, SGC003F p.o. 1 mg/kg with tariquidar (oral or i.v.)): twice
- Increase of SGC003F concentration in the brain versus SGC003F alone (4 h, SGC003F p.o. 1 mg/kg, tariquidar intravenously 7.5 mg/kg): 3.2 fold
- Increase of SGC003F concentration in the brain versus SGC003F alone (4 h, SGC003F p.o. 1 mg/kg, tariquidar orally 15 mg/kg): 4.2 fold
- Concentration of SGC003F in the brain (24 h, all groups (alone or with tariquidar)): below the limit of quantification
- AUC(0–24h), Brain, Ratio 1 (with Tar (i.v.)/single) [1]: 2.4
- AUC(0–24h), Heart, Ratio 1 (with Tar (i.v.)/single) [1]: ~1.3
- AUC(0–24h), Intestine, Ratio 1 (with Tar (i.v.)/single) [1]: 2.2
- AUC(0–24h), Kidney, Ratio 1 (with Tar (i.v.)/single) [1]: ~1.3
- AUC(0–24h), Liver, Ratio 1 (with Tar (i.v.)/single) [1]: ~1.3
- AUC(0–24h), Plasma, Ratio 1 (with Tar (i.v.)/single) [1]: 1.4
- KP2, Brain, Ratio 1 (with Tar (i.v.)/single) [1]: 2.0
- KP2, Intestine, Ratio 1 (with Tar (i.v.)/single) [1]: 1.6
- AUC(0–24h), Heart, Ratio 2 (with Tar (p.o.)/single) [2]: 2.0
- AUC(0–24h), Kidney, Ratio 2 (with Tar (p.o.)/single) [2]: 2.0
- AUC(0–24h), Liver, Ratio 2 (with Tar (p.o.)/single) [2]: 2.0
- AUC(0–24h), Plasma, Ratio 2 (with Tar (p.o.)/single) [2]: 2.0
- KP2, Brain, Ratio 2 (with Tar (p.o.)/single) [2]: 2.0
- KP2, Heart, Ratio 2 (with Tar (p.o.)/single) [2]: 1.0
- KP2, Intestine, Ratio 2 (with Tar (p.o.)/single) [2]: 2.1
- KP2, Kidney, Ratio 2 (with Tar (p.o.)/single) [2]: 1.0
- KP2, Liver, Ratio 2 (with Tar (p.o.)/single) [2]: 1.0
SMILES: COC(=O)Nc1c(N)nc(-c2nn(Cc3sccc3F)c3ncc(F)cc23)nc1N [SGC003F]
